According to PMC7893776, “Selecting an anti-malarial clinical candidate from two potent dihydroisoquinolones” (Malaria Journal, 2021):
Converted amounts (≈) assume the structure as drawn. “And” between values parts separate entries of the source, which are not always exact repeats. Equal entries are not always repeated. Blank lines part the entries; values can stand above or below the molecule they belong to.

Legend:
[1] = Microsomal stability, dog; type: in vitro ADME; settings: for CLint in vivo: scaled up using PBSF
Procedure: The metabolic stability assay was performed by incubating compounds individually (0.8, 4, or 20 µM) with mouse, rat, dog and human liver microsomes (Fisher, 0.5 mg/mL protein concentration) at 37 °C. The metabolic reaction was initiated by the addition of a NADPH-regenerating system and quenched at various time points by the addition of acetonitrile according to a published method.
The remaining concentration of each compound was measured as a ratio of peak area to the internal standard. The log peak area ratio was plotted vs. time (h), and the slope was determined to calculate the elimination rate constant [k = (− 2.303) * slope]. If deviation from first order kinetics was evident, only the initial linear portion of the plot was used to determine the rate constate, k. The half-life (h) was calculated as t1/2 = 0.693/k. Intrinsic clearance in vitro was calculated as CLintin vitro = (1000)*(0.693/t1/2*60)/0.5, where microsomal concentration in the reaction solution was 0.5 mg/mL; 1000 and 60 are scaling factors for volume (µL) and time (min), respectively. The intrinsic in vitro clearance was scaled to the intrinsic in vivo clearance using physiology based scaling factor (PBSF): CLint in vivo= CLint in vitro *PBSF: (microsome protein/gram liver) * (gram liver/kg b.w.), with PBSF: 47 (mouse), 47(rat), 58 (dog), 32 (human); and liver weight proportions: 54.9 (mouse), 36.6 (rat), 32.9 (dog) 25.7 (human).

[2] = biological target: T1, CYP1A2 (Homo sapiens, UniProt P05177); assay: CYP450 inhibition, CYP1A2; type: in vitro ADME; settings: for inhibition of CYP1A2: 10 µM, probe substrate Ethoxy-resorufin, replicate measurements
T1 construct: purchased Cypex Ltd (Bactosomes)
T1 sequence (P05177 1-516): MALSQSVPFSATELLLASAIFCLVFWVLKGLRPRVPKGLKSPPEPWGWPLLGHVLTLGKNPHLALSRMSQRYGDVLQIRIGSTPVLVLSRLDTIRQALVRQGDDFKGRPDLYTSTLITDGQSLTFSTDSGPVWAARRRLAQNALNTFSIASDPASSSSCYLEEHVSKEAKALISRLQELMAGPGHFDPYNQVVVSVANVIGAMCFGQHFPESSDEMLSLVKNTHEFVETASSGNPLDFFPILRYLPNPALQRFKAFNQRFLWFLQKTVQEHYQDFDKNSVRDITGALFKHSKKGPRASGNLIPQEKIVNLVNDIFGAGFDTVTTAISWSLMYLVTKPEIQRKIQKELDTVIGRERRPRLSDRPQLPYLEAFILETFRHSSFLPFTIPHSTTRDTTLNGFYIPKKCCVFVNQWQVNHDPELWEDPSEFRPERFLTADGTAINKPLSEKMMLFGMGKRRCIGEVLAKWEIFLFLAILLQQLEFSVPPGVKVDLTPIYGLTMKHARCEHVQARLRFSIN

[3] = Thermodynamic solubility; type: physicochemical; settings: for solubility thermodynamic: 37 °C, thermodynamic from solid
Procedure: Solubility was also evaluated in fasted (FaSSIF-V2) or fed (FeSSIF-V2) state simulated intestinal fluids. These media contain lipolysis breakdown products (glycerol monooleate and oleic acid) in addition to bile salt (sodium taurocholate) and phospholipid (lecithin) and were buffered to simulate approximate pH conditions found in the fasted (pH 6.5) or fed (pH 5.8) state small intestine. Control media (blank FaSSIF-V2 and FeSSIF-V2 buffers) lacking bile salt, phospholipid and lipolysis products were also investigated.
Compounds were weighed into individual screw cap polypropylene tubes and aqueous buffer, 0.1 N HCl, or simulated intestinal fluid added to provide a compound concentration of between 700 and 5000 μg/mL. Samples were vortexed, placed in a 37 °C incubator, and mixed on an orbital shaker (IKA® VXR basic Vibrax® orbital shaker) set at 600 rpm. Samples were regularly examined to ensure excess solid was present. Sampling was conducted after 1, 4, 6, and 24 h by centrifuging each sample at 10,000 rpm for 3 min, transferring a 200 µL aliquot into fresh Eppendorf tubes, and centrifuging again at 10,000 rpm for 3 min. Duplicate aliquots of the final supernatant were removed and diluted to an appropriate analytical concentration in 50% aqueous methanol prior to analysis by HPLC. HPLC analysis was conducted on a Waters 2695 HPLC system coupled to a Waters 2487 dual absorbance wavelength detector, analyzing at 254 nm. A Phenomenex Luna C18(2) column (3 µm, 50 × 2.0 mm i.d.) was used for analysis, with the column temperature maintained at 40 °C. Concentrations were quantified by comparison to a calibration curve prepared over the concentration range in 50% aqueous methanol. The mobile phase consisted of water, methanol, and 1% aqueous formic acid. Separations were conducted using a flow rate of 0.4 mL/min and an injection volume of 5 µL. Processed samples were maintained in the autosampler at a temperature of 10 °C.

[4] = dog microsomes, 0.8 µM, independent replicate to Table 4
[5] = dog microsomes, 4 µM, independent replicate to Table 4
[6] = dog microsomes, 20 µM, independent replicate to Table 4

Structure (SMILES): N#Cc1cc(NC(=O)C2c3ccccc3C(=O)N(CC(F)(F)F)C2c2cn[nH]c2)ccc1F (racemic) [(r)-SJ311]
CLint in vitro ([1]; dog microsomes, 20, 4, 0.8 µM): <7 µl/min/mg protein | CLint in vivo ([1]; dog microsomes, 20, 4, 0.8 µM): <8.3 mL/min/kg | inhibition of CYP1A2 [2]: 5% and 0.5%

Structure (SMILES): N#Cc1cc(NC(=O)C2c3ccccc3C(=O)N(CC(F)(F)F)C2c2cccnc2)ccc1F (racemic) [(r)-SJ733]
CLint in vitro [1, 4]: <7 µl/min/mg protein | CLint in vivo ([1]; dog microsomes, 0.8 µM): <8.3 mL/min/kg | CLint in vitro [1, 5]: <7 µl/min/mg protein | CLint in vivo ([1]; dog microsomes, 4 µM): <8.3 mL/min/kg | CLint in vitro [1, 6]: <7 µl/min/mg protein | CLint in vivo ([1]; dog microsomes, 20 µM): <8.3 mL/min/kg | inhibition of CYP1A2 [2]: 10.8%

Structure (SMILES): N#Cc1cc(NC(=O)[C@H]2c3ccccc3C(=O)N(CC(F)(F)F)[C@@H]2c2cn[nH]c2)ccc1F [(+)-SJ311]
CLint ([1]; dog microsomes, 0.8 µM): < 7 µl/min/mg protein | t1/2 ([1]; dog microsomes, 0.8 µM): > 4 h

Structure (SMILES): N#Cc1cc(NC(=O)[C@H]2c3ccccc3C(=O)N(CC(F)(F)F)[C@@H]2c2cccnc2)ccc1F [(+)-SJ733]
Solubility ([3]; 0.1 N HCl pH 1, 37°C, 1 h): 6817 µM (≈ 3190 µg/mL) | Solubility ([3]; 0.1 N HCl pH 1, 37°C, 4 h): 7321 µM (≈ 3430 µg/mL) | Solubility ([3]; 0.1 N HCl pH 1, 37°C, 6 h): 7376 µM (≈ 3450 µg/mL) | Solubility ([3]; 0.1 N HCl pH 1, 37°C, 24 h): 7891 µM (≈ 3700 µg/mL) | Solubility ([3]; FaSSIF blank pH 6.5, 37°C, 1 h): 81 µM (≈ 37.9 µg/mL) | Solubility ([3]; FaSSIF blank pH 6.5, 37°C, 4 h): 92 µM (≈ 43.1 µg/mL) | Solubility ([3]; FaSSIF blank pH 6.5, 37°C, 6 h): 96 µM (≈ 45 µg/mL) | Solubility ([3]; FaSSIF blank pH 6.5, 37°C, 24 h): 100 µM (≈ 46.8 µg/mL) | Solubility ([3]; FaSSIF-V2 pH 6.5, 37°C, 1 h): 199 µM (≈ 93.2 µg/mL) | Solubility ([3]; FaSSIF-V2 pH 6.5, 37°C, 4 h): 216 µM (≈ 101 µg/mL) | Solubility ([3]; FaSSIF-V2 pH 6.5, 37°C, 24 h): 207 µM (≈ 97 µg/mL) | Solubility ([3]; FeSSIF blank pH 5.8, 37°C, 1 h): 83 µM (≈ 38.9 µg/mL) | Solubility ([3]; FeSSIF blank pH 5.8, 37°C, 4 h): 88 µM (≈ 41.2 µg/mL) | Solubility ([3]; FeSSIF blank pH 5.8, 37°C, 6 h): 100 µM (≈ 46.8 µg/mL) | Solubility ([3]; FeSSIF blank pH 5.8, 37°C, 24 h): 107 µM (≈ 50.1 µg/mL) | Solubility ([3]; FeSSIF-V2 pH 5.8, 37°C, 1 h): 237 µM (≈ 111 µg/mL) | Solubility ([3]; FeSSIF-V2 pH 5.8, 37°C, 4 h): 250 µM (≈ 117 µg/mL) | Solubility ([3]; FeSSIF-V2 pH 5.8, 37°C, 24 h): 248 µM (≈ 116 µg/mL) | Solubility ([3]; Phosphate buffer pH 7.4, 37°C, 1 h): 207 µM (≈ 97 µg/mL) | Solubility ([3]; Phosphate buffer pH 7.4, 37°C, 4 h): 250 µM (≈ 117 µg/mL) | Solubility ([3]; Phosphate buffer pH 7.4, 37°C, 24 h): 250 µM (≈ 117 µg/mL) | CLint ([1]; dog microsomes, 0.8 µM): < 7 µl/min/mg protein | t1/2 ([1]; dog microsomes, 0.8 µM): > 4 h | CLint in vitro [1, 4]: <7 µl/min/mg protein | CLint in vivo ([1]; dog microsomes, 0.8 µM): <8.3 mL/min/kg | CLint in vitro [1, 5]: <7 µl/min/mg protein | CLint in vivo ([1]; dog microsomes, 4 µM): <8.3 mL/min/kg | CLint in vitro [1, 6]: <7 µl/min/mg protein | CLint in vivo ([1]; dog microsomes, 20 µM): <8.3 mL/min/kg

More lines, now with the values ahead:

solubility thermodynamic ([3]; 0.1 N HCl, pH 1, simulated gastric fluid, strongly acidic conditions): > 3000 µg/mL | solubility thermodynamic ([3]; aqueous buffer, pH 7.4, 6.5, and 5.8 aqueous buffers): 81 to 237 µM | CYP1A2 inhibition, in words [2]: weak inhibitors
Structure (SMILES): N#Cc1cc(NC(=O)[C@H]2c3ccccc3C(=O)N(CC(F)(F)F)[C@@H]2c2cccnc2)ccc1F (racemic) [SJ733]

CYP1A2 inhibition, in words [2]: weak inhibitors
Structure (SMILES): N#Cc1cc(NC(=O)[C@H]2c3ccccc3C(=O)N(CC(F)(F)F)[C@@H]2c2cn[nH]c2)ccc1F [SJ311]
